From publication PMC4966941 (PLoS ONE, 2016)
Counter-ions that a name gives are not always drawn.

Columns and labels:
[1] = system: Staphylococcus aureus Xen 36; test: In-vivo infection prevention study: microbiological analysis of explanted tissue
Experimental: Bioluminescent strain Staphylococcus aureus Xen 36 (Caliper LifeSciences, Alameda, CA) was used to develop bone infection. The strain was stored in a glycerol (20% v/v) and Brain Heart Infusion (BHI) suspension at -80°C until required. Bacteria were subcultured onto an LB plate (Luria-Bertani, Miller broth mixed with 1.2% (w/v) Technical Agar (Difco, Sparks, MD.)), at 37°C overnight. Five colonies were then transferred to 3 mL LB broth and grown in shaker incubator (200 rpm), at 37°C for 2.5 h. Two milliliters of the bacterial suspension was transferred to 100 mL LB broth and grown for a further 4 h, until the cells reached exponential growth. Bacterial suspension was transferred into 50 mL centrifuge tubes and cells centrifuged at ~3,000 rpm for 30 min. Supernatants were discarded and pellets were re-suspended in 15 mL Phosphate Buffered Saline (PBS). Cells were then mixed by vortexing and the centrifugation process was repeated. This cell washing process was repeated three times. The final washed and pelleted cells were re-suspended in a total of 10 mL PBS, and mixed by vortexing. The cell suspension was then ten-fold serially diluted. The concentration of the cell suspension was then determined using the spread plate technique and spreading 100 μL of the various dilutions onto LB plates, in duplicate. Plates were incubated at 37°C overnight before counting colony forming units (CFU). The viable count was then used to dilute the washed cell suspension to the desired concentrations (i.e., average Log10 7.82 CFU/mL or 6.62x10^7 CFU/mL) using PBS. Two hundred microliter aliquots were dispensed into microfuge tubes and labeled bacterial inoculum. To inoculate the rat tibias the bacterial inoculum was mixed with equal volume of 1% (w/v) molten agarose (Pulsed field certified agarose, Biorad, Hercules, CA). Mixing the bacteria with agarose helped to control seepage of the inoculum and minimize contamination of the surrounding muscle.
After sacrificing the rats, the tibia and gastrocnemius muscle surrounding the surgical site were explanted, weighed separately and flash frozen with liquid nitrogen prior to pulverizing in a freezer mill (6770 Spex SamplePrep, Metuchen, NJ.). The powdered samples were then re-weighed, suspended (i.e., 1:10) in phosphate buffered saline (PBS), vortexed, and 10-fold serially diluted before plating (in duplicate) 100 μL of suspensions onto LB plates (Luria-Bertani, Miller broth mixed with 1.2% (w/v) Technical Agar (Difco, Sparks, MD.)). Plates were incubated at 37°C for 18–24 h and the bacterial load (colony forming units) per sample was calculated based on the number of colonies seen at specific dilutions. Confirmation of isolating S. aureus Xen 36 colonies from samples was determined using the IVIS (Lumina II, Caliper Life Science, Hopkinton, MA.). Non-bioluminescent colonies were confirmed as S. aureus using Gram staining, catalase test and Color Staph ID kit (Sure-Vue, Fisher Scientific, Houston TX.).

[2] = In-vivo pharmacokinetic study: vancomycin in tibia, muscle and plasma after intramedullary delivery (HPLC); details: rat; for Mean vancomycin concentration in gastrocnemius muscle (ug drug/g tissue, AVE) / Mean vancomycin concentration in tibia (ug drug/g tissue, AVE): single 25 mg/Kg intramedullary dose to tibia, mean of n = 4; for Vancomycin in muscle, ug drug/g tissue / Vancomycin in plasma: single rat
[3] = system: osteosarcoma cell line MG-63; design: method as in Edin et al. [38]; details: MG-63 in vitro; ref Edin et al. [38]; cited from earlier work
[4] = patient with normal renal function, intravenous infusion; ref [11], [21]; cited from earlier work
[5] = system: osteoblast (MC3T3-E1) cells; design: method as in Antoci et al. [39]; details: ref Antoci et al. [39]; cited from earlier work
[6] = single 25 mg/Kg intramedullary dose, 4 h, HPLC, sample 1-1
[7] = single 25 mg/Kg intramedullary dose, 4 h, HPLC, sample 1-3
[8] = single 25 mg/Kg intramedullary dose, 4 h, HPLC, sample 1-4
[9] = single 25 mg/Kg intramedullary dose, 6 h, HPLC, sample 2-1
[10] = single 25 mg/Kg intramedullary dose, 6 h, HPLC, sample 2-2
[11] = single 25 mg/Kg intramedullary dose, 6 h, HPLC, sample 2-3
[12] = single 25 mg/Kg intramedullary dose, 6 h, HPLC, sample 2-4
[13] = single 25 mg/Kg intramedullary dose, 12 h, HPLC, sample 3-1
[14] = single 25 mg/Kg intramedullary dose, 12 h, HPLC, sample 3-2
[15] = single 25 mg/Kg intramedullary dose, 12 h, HPLC, sample 3-3
[16] = single 25 mg/Kg intramedullary dose, 12 h, HPLC, sample 3-4
[17] = single 25 mg/Kg intramedullary dose, 24 h, HPLC, sample 4-1
[18] = single 25 mg/Kg intramedullary dose, 24 h, HPLC, sample 4-2
[19] = single 25 mg/Kg intramedullary dose, 24 h, HPLC, sample 4-3
[20] = single 25 mg/Kg intramedullary dose, 24 h, HPLC, sample 4-4
[21] = single 25 mg/Kg intramedullary dose, 48 h, HPLC, sample 5-1
[22] = single 25 mg/Kg intramedullary dose, 48 h, HPLC, sample 5-2
[23] = single 25 mg/Kg intramedullary dose, 48 h, HPLC, sample 5-4
[24] = single 25 mg/Kg intramedullary dose, 72 h, HPLC, sample 6-2
[25] = single 25 mg/Kg intramedullary dose, 72 h, HPLC, sample 6-3
[26] = single 25 mg/Kg intramedullary dose, 72 h, HPLC, sample 6-4
[27] = single 25 mg/Kg intramedullary dose, 96 h, HPLC, sample 7-1
[28] = single 25 mg/Kg intramedullary dose, 96 h, HPLC, sample 7-2
[29] = single 25 mg/Kg intramedullary dose, 96 h, HPLC, sample 7-3
[30] = single 25 mg/Kg intramedullary dose, 96 h, HPLC, sample 7-4
[31] = single 25 mg/Kg intramedullary dose, HPLC

CN[C@H](CC(C)C)C(=O)N[C@H]1C(=O)N[C@@H](CC(N)=O)C(=O)N[C@H]2C(=O)N[C@H]3C(=O)N[C@H](C(=O)N[C@H](C(=O)O)c4cc(O)cc(O)c4-c4cc3ccc4O)[C@H](O)c3ccc(c(Cl)c3)Oc3cc2cc(c3O[C@@H]2O[C@H](CO)[C@@H](O)[C@H](O)[C@H]2O[C@H]2C[C@](C)(N)[C@H](O)[C@H](C)O2)Oc2ccc(cc2Cl)[C@H]1O [vancomycin, vancomycin hydrochloride]
Viable bacteria in tibia of treated rats ([1]; rat tibia inoculated with S. aureus Xen 36, single 25 mg/Kg intramedullary dose, end of 14-day study): < 200 CFU/g | Signs of infection around the surgical site ([1]; rat, S. aureus Xen 36, prophylactic single 25 mg/Kg intramedullary dose, 14 days): no signs of infection | Bacteria in the muscle and plasma samples of treated rats ([1]; rat, S. aureus Xen 36, single 25 mg/Kg intramedullary dose, end of study): No bacteria were detected | Ave Log10 CFU/muscle ([1]; treated rats, explanted muscle at end of 14-day study, mean of n = 9, values of 100 CFU = below detection limit): 2.00 Log10 CFU/muscle | Ave Log10 CFU/tibia ([1]; treated rats, explanted tibia at end of 14-day study, mean of n = 9, values of 100 CFU = below detection limit): 2.09 Log10 CFU/tibia | Log10 CFU/tibia ([1]; treated, end of study, rat K-11, 2.00 = below detection limit): 2.81 Log10 CFU/tibia | Therapeutic or supra-therapeutic bone concentrations of vancomycin ([2]; local delivery to the medullary canal): > 100 µg/mL | Time the infused drug stays in the bone ([2]; single 25 mg/Kg intramedullary dose): at least 96 hours | Mean vancomycin concentration in gastrocnemius muscle (ug drug/g tissue, AVE) ([2]; 4 h, HPLC): 167.793 µg/g | Mean vancomycin concentration in tibia (ug drug/g tissue, AVE) ([2]; 4 h, HPLC): 818.068 µg/g | Mean vancomycin concentration in gastrocnemius muscle (ug drug/g tissue, AVE) ([2]; 6 h, HPLC): 90.1696 µg/g | Mean vancomycin concentration in tibia (ug drug/g tissue, AVE) ([2]; 6 h, HPLC): 784.095 µg/g | Mean vancomycin concentration in gastrocnemius muscle (ug drug/g tissue, AVE) ([2]; 12 h, HPLC): 29.0616 µg/g | Mean vancomycin concentration in tibia (ug drug/g tissue, AVE) ([2]; 12 h, HPLC): 359.143 µg/g | Mean vancomycin concentration in gastrocnemius muscle (ug drug/g tissue, AVE) ([2]; 24 h, HPLC): 0 µg/g | Mean vancomycin concentration in gastrocnemius muscle (ug drug/g tissue, AVE) ([2]; 48 h, HPLC): 0.99 µg/g | Mean vancomycin concentration in tibia (ug drug/g tissue, AVE) ([2]; 48 h, HPLC): 515.375 µg/g | Mean vancomycin concentration in gastrocnemius muscle (ug drug/g tissue, AVE) ([2]; 72 h, HPLC): 0.6895 µg/g | Mean vancomycin concentration in tibia (ug drug/g tissue, AVE) ([2]; 72 h, HPLC): 130.325 µg/g | Mean vancomycin concentration in gastrocnemius muscle (ug drug/g tissue, AVE) ([2]; 96 h, HPLC): 1.205 µg/g | Mean vancomycin concentration in tibia (ug drug/g tissue, AVE) ([2]; 96 h, HPLC): 110.095 µg/g | Vancomycin in muscle, ug drug/g tissue [2, 6]: 0 ug drug/g tissue | Vancomycin in plasma [2, 6]: 2.855 µg/mL | Vancomycin in muscle, ug drug/g tissue ([2]; single 25 mg/Kg intramedullary dose, 4 h, HPLC, sample 1-2): 0 ug drug/g tissue | Vancomycin in muscle, ug drug/g tissue [2, 7]: 0 ug drug/g tissue | Vancomycin in plasma [2, 7]: 2.69 µg/mL | Vancomycin in muscle, ug drug/g tissue [2, 8]: 671.173 ug drug/g tissue | Vancomycin in plasma [2, 8]: 8.576 µg/mL | Vancomycin in muscle, ug drug/g tissue [2, 9]: 0 ug drug/g tissue | Vancomycin in plasma [2, 9]: 0.1311 µg/mL | Vancomycin in muscle, ug drug/g tissue [2, 10]: 359.037 ug drug/g tissue | Vancomycin in plasma [2, 10]: 3.7319 µg/mL | Vancomycin in muscle, ug drug/g tissue [2, 11]: 0 ug drug/g tissue | Vancomycin in plasma [2, 11]: -0.165 µg/mL | Vancomycin in muscle, ug drug/g tissue [2, 12]: 1.642 ug drug/g tissue | Vancomycin in plasma [2, 12]: 0.01263 µg/mL | Vancomycin in muscle, ug drug/g tissue [2, 13]: 0 ug drug/g tissue | Vancomycin in plasma [2, 13]: -0.165 µg/mL | Vancomycin in muscle, ug drug/g tissue [2, 14]: 114.004 ug drug/g tissue | Vancomycin in plasma [2, 14]: 0.9602 µg/mL | Vancomycin in muscle, ug drug/g tissue [2, 15]: 2.243 ug drug/g tissue | Vancomycin in plasma [2, 15]: 1.434 µg/mL | Vancomycin in muscle, ug drug/g tissue [2, 16]: 0 ug drug/g tissue | Vancomycin in plasma [2, 16]: 0.747 µg/mL | Vancomycin in muscle, ug drug/g tissue [2, 17]: 0 ug drug/g tissue | Vancomycin in plasma [2, 17]: 0.2258 µg/mL | Vancomycin in muscle, ug drug/g tissue [2, 18]: 0 ug drug/g tissue | Vancomycin in plasma [2, 18]: 0.9365 µg/mL | Vancomycin in muscle, ug drug/g tissue [2, 19]: 0 ug drug/g tissue | Vancomycin in plasma [2, 19]: 0.3917 µg/mL | Vancomycin in muscle, ug drug/g tissue [2, 20]: 0 ug drug/g tissue | Vancomycin in plasma [2, 20]: 0.6404 µg/mL | Vancomycin in muscle, ug drug/g tissue [2, 21]: 0 ug drug/g tissue | Vancomycin in plasma [2, 21]: 0.8299 µg/mL | Vancomycin in muscle, ug drug/g tissue [2, 22]: 0 ug drug/g tissue | Vancomycin in plasma [2, 22]: 0.7352 µg/mL | Vancomycin in muscle, ug drug/g tissue ([2]; single 25 mg/Kg intramedullary dose, 48 h, HPLC, sample 5-3): 0 ug drug/g tissue | Vancomycin in muscle, ug drug/g tissue [2, 23]: 3.96 ug drug/g tissue | Vancomycin in plasma [2, 23]: 0.593 µg/mL | Vancomycin in muscle, ug drug/g tissue ([2]; single 25 mg/Kg intramedullary dose, 72 h, HPLC, sample 6-1): 0 ug drug/g tissue | Vancomycin in muscle, ug drug/g tissue [2, 24]: 0 ug drug/g tissue | Vancomycin in plasma [2, 24]: -0.03475 µg/mL | Vancomycin in muscle, ug drug/g tissue [2, 25]: 2.758 ug drug/g tissue | Vancomycin in plasma [2, 25]: 0.04816 µg/mL | Vancomycin in muscle, ug drug/g tissue [2, 26]: 0 ug drug/g tissue | Vancomycin in plasma [2, 26]: 0.2495 µg/mL | Vancomycin in muscle, ug drug/g tissue [2, 27]: 0 ug drug/g tissue | Vancomycin in plasma [2, 27]: -0.165 µg/mL | Vancomycin in muscle, ug drug/g tissue [2, 28]: 0 ug drug/g tissue | Vancomycin in plasma [2, 28]: -0.165 µg/mL | Vancomycin in muscle, ug drug/g tissue [2, 29]: 4.819 ug drug/g tissue | Vancomycin in plasma [2, 29]: -0.165 µg/mL | Vancomycin in muscle, ug drug/g tissue [2, 30]: 0 ug drug/g tissue | Vancomycin in plasma [2, 30]: -0.165 µg/mL | Vancomycin concentration in the gastrocnemius muscle, first 4h post administration [2, 31]: > 100 µg/g | Vancomycin level in the gastrocnemius muscle by 24h [2, 31]: near undetectable levels | Vancomycin concentration detected in the tibia over the 96-h study period ([2]; single 25 mg/Kg intramedullary dose, HPLC of pulverized tissue): > 100 µg/g | Vancomycin detected in the blood plasma for the entirety of the study ([2]; single 25 mg/Kg intramedullary dose, HPLC, 96 h study): Little to no vancomycin was detected | Time a supratherapeutic antimicrobial dose (>100 μg/mL) was maintained in the surrounding muscle ([2]; single 25 mg/Kg intramedullary dose, n = 4 per time point): < 6 h | Vancomycin concentration that caused cell death [3]: 10 mg/mL | Elimination half-life [4]: approximately 6 hours | Doses that severely decreased cellular proliferation [5]: greater than 2 mg/mL
